Reference: PubChem BioAssay AID1963835 (Molecular Pharmacology Branch, DTP, NCI, 2024)

Test system: 699152-130-R-J1-PDC complex spheroid viability
Assay: Anticancer human tumor 699152-130-R-J1-PDC patient-derived pancreatic carcinoma cell line growth inhibition [POLQ]
Details: for IC50: curve of first compound; for viability, T/C: stronger effect = lower value
Procedure, shortened: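 PDC + HUVEC + MSC complex spheroids; POLQ inhibitors ± partner drugs; top conc. at/near clinical Cmax, else 10 microM (SN-38 1 microM), half-log dilutions; 37 degrees C, 5% CO2.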

[1] = second compound 0.0316 µM, first compound 0.0316 µM
[2] = second compound 0.0316 µM, first compound 0.1 µM
[3] = second compound 0.0316 µM, first compound 0.316 µM
[4] = second compound 0.0316 µM, first compound 1 µM
[5] = second compound 0.0316 µM, first compound 3.16 µM
[6] = second compound 0.0316 µM, first compound 10 µM
[7] = second compound 0.1 µM, first compound 0.0316 µM
[8] = second compound 0.1 µM, first compound 0.1 µM
[9] = second compound 0.1 µM, first compound 0.316 µM
[10] = second compound 0.1 µM, first compound 1 µM
[11] = second compound 0.1 µM, first compound 3.16 µM
[12] = second compound 0.1 µM, first compound 10 µM
[13] = second compound 0.316 µM, first compound 0.0316 µM
[14] = second compound 0.316 µM, first compound 0.1 µM
[15] = second compound 0.316 µM, first compound 0.316 µM
[16] = second compound 0.316 µM, first compound 1 µM
[17] = second compound 0.316 µM, first compound 3.16 µM
[18] = second compound 0.316 µM, first compound 10 µM
[19] = second compound 1 µM, first compound 0.0316 µM
[20] = second compound 1 µM, first compound 0.1 µM
[21] = second compound 1 µM, first compound 0.316 µM
[22] = second compound 1 µM, first compound 1 µM
[23] = second compound 1 µM, first compound 3.16 µM
[24] = second compound 1 µM, first compound 10 µM
[25] = second compound 3.16 µM, first compound 0.0316 µM
[26] = second compound 3.16 µM, first compound 0.1 µM
[27] = second compound 3.16 µM, first compound 0.316 µM
[28] = second compound 3.16 µM, first compound 1 µM
[29] = second compound 3.16 µM, first compound 3.16 µM
[30] = second compound 3.16 µM, first compound 10 µM
[31] = second compound 10 µM, first compound 0.0316 µM
[32] = second compound 10 µM, first compound 0.1 µM
[33] = second compound 10 µM, first compound 0.316 µM
[34] = second compound 10 µM, first compound 1 µM
[35] = second compound 10 µM, first compound 3.16 µM
[36] = second compound 10 µM, first compound 10 µM
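Note: spheroids exposed to agents for 7 days before viability reading.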
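Throughout, for viability, T/C: percent of DMSO vehicle control viability so 100% = vehicle and 0% = no viable signal.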

Q: How did the IC50 (second compound 0.0316 µM) turn out when `COc1cc2cc(C(=O)CCC(=O)O)sc2cc1OC` + Nc1ccc(C#CCN(C(=O)Cc2ncc(C(F)(F)F)cc2C(F)(F)F)c2ccc(F)cc2)nn1 was run?
A: > 10 µM

Q: What about the IC50 (second compound 0.1 µM) of the same compound?
A: > 10 µM

Q: What about the IC50 (second compound 0.316 µM) of the same compound?
A: > 10 µM

Q: And the IC50 (second compound 1 µM)?
A: > 10 µM

Q: And the IC50 (second compound 3.16 µM)?
A: > 10 µM

Q: What about the IC50 (second compound 10 µM) of the same compound?
A: > 10 µM

Q: And the viability, T/C [1]?
A: 88.3%

Q: And the viability, T/C [2]?
A: 94%

Q: And the viability, T/C [3]?
A: 90.2%

Q: What about the viability, T/C [4] of the same compound?
A: 98.3%

Q: What about the viability, T/C [5] of the same compound?
A: 102%

Q: What about the viability, T/C [6] of the same compound?
A: 88.9%

Q: And the viability, T/C [7]?
A: 99%

Q: What about the viability, T/C [8] of the same compound?
A: 93.8%

Q: What about the viability, T/C [9] of the same compound?
A: 95.5%

Q: What about the viability, T/C [10] of the same compound?
A: 110%

Q: And the viability, T/C [11]?
A: 107%

Q: And the viability, T/C [12]?
A: 106%

Q: What about the viability, T/C [13] of the same compound?
A: 104%

Q: And the viability, T/C [14]?
A: 97.3%

Q: And the viability, T/C [15]?
A: 90.3%

Q: And the viability, T/C [16]?
A: 105%

Q: What about the viability, T/C [17] of the same compound?
A: 105%

Q: What about the viability, T/C [18] of the same compound?
A: 104%

Q: What about the viability, T/C [19] of the same compound?
A: 102%

Q: And the viability, T/C [20]?
A: 94.2%

Q: And the viability, T/C [21]?
A: 133%

Q: And the viability, T/C [22]?
A: 96.9%

Q: And the viability, T/C [23]?
A: 110%

Q: What about the viability, T/C [24] of the same compound?
A: 97.8%

Q: What about the viability, T/C [25] of the same compound?
A: 119%

Q: What about the viability, T/C [26] of the same compound?
A: 122%

Q: What about the viability, T/C [27] of the same compound?
A: 104%

Q: And the viability, T/C [28]?
A: 102%

Q: And the viability, T/C [29]?
A: 91.8%

Q: What about the viability, T/C [30] of the same compound?
A: 102%

Q: And the viability, T/C [31]?
A: 114%

Q: And the viability, T/C [32]?
A: 124%

Q: What about the viability, T/C [33] of the same compound?
A: 121%

Q: And the viability, T/C [34]?
A: 111%

Q: What about the viability, T/C [35] of the same compound?
A: 112%

Q: What about the viability, T/C [36] of the same compound?
A: 109%

Q: Which results are given for `COc1ccc([C@@H](O)c2cc(-c3ncnc4cc(N5CCOCC5)ccc34)c(F)cc2Cl)nn1` + Nc1ccc(C#CCN(C(=O)Cc2ncc(C(F)(F)F)cc2C(F)(F)F)c2ccc(F)cc2)nn1?
A: IC50 (second compound 0.0316 µM): 3.01 µM; IC50 (second compound 0.1 µM): 2.89 µM; IC50 (second compound 0.316 µM): 3.05 µM; IC50 (second compound 1 µM): 3.39 µM; IC50 (second compound 3.16 µM): 3.54 µM; IC50 (second compound 10 µM): 3.89 µM; viability, T/C [1]: 89.7%; viability, T/C [2]: 95.3%; viability, T/C [3]: 82.5%; viability, T/C [4]: 78.8%; viability, T/C [5]: 48.1%; viability, T/C [6]: 19.2%; viability, T/C [7]: 95.2%; viability, T/C [8]: 93.3%; viability, T/C [9]: 91.1%; viability, T/C [10]: 76.4%; viability, T/C [11]: 47.9%; viability, T/C [12]: 25.5%; viability, T/C [13]: 114%; viability, T/C [14]: 93.2%; viability, T/C [15]: 92.5%; viability, T/C [16]: 70.9%; viability, T/C [17]: 50.2%; viability, T/C [18]: 19.3%; viability, T/C [19]: 99.5%; viability, T/C [20]: 100%; viability, T/C [21]: 96.7%; viability, T/C [22]: 85.9%; viability, T/C [23]: 51.8%; viability, T/C [24]: 22.5%; viability, T/C [25]: 101%; viability, T/C [26]: 92.6%; viability, T/C [27]: 90.5%; viability, T/C [28]: 83.4%; viability, T/C [29]: 52.2%; viability, T/C [30]: 21.8%; viability, T/C [31]: 116%; viability, T/C [32]: 105%; viability, T/C [33]: 104%; viability, T/C [34]: 84%; viability, T/C [35]: 54.9%; viability, T/C [36]: 26%

Q: For `Cn1ncnc1[C@H]1c2n[nH]c(=O)c3cc(F)cc(c23)N[C@@H]1c1ccc(F)cc1` + Nc1ccc(C#CCN(C(=O)Cc2ncc(C(F)(F)F)cc2C(F)(F)F)c2ccc(F)cc2)nn1, which IC50 (second compound 0.0316 µM) is on record?
A: > 0.1 µM

Q: And the IC50 (second compound 0.1 µM)?
A: > 0.1 µM

Q: What about the IC50 (second compound 0.316 µM) of the same compound?
A: > 0.1 µM

Q: And the IC50 (second compound 1 µM)?
A: > 0.1 µM

Q: What about the IC50 (second compound 3.16 µM) of the same compound?
A: > 0.1 µM

Q: What about the IC50 (second compound 10 µM) of the same compound?
A: > 0.1 µM

Q: And the viability, T/C (second compound 0.0316 µM, first compound 0.000316 µM)?
A: 102%

Q: What about the viability, T/C (second compound 0.0316 µM, first compound 0.001 µM) of the same compound?
A: 86.8%

Q: What about the viability, T/C (second compound 0.0316 µM, first compound 0.00316 µM) of the same compound?
A: 89.6%

Q: And the viability, T/C (second compound 0.0316 µM, first compound 0.01 µM)?
A: 97.1%

Q: What about the viability, T/C [1] of the same compound?
A: 87%

Q: What about the viability, T/C [2] of the same compound?
A: 82.2%

Q: What about the viability, T/C (second compound 0.1 µM, first compound 0.000316 µM) of the same compound?
A: 106%

Q: And the viability, T/C (second compound 0.1 µM, first compound 0.001 µM)?
A: 89.1%

Q: And the viability, T/C (second compound 0.1 µM, first compound 0.00316 µM)?
A: 87.5%

Q: What about the viability, T/C (second compound 0.1 µM, first compound 0.01 µM) of the same compound?
A: 101%

Q: What about the viability, T/C [7] of the same compound?
A: 96%

Q: What about the viability, T/C [8] of the same compound?
A: 82.8%

Q: What about the viability, T/C (second compound 0.316 µM, first compound 0.000316 µM) of the same compound?
A: 102%

Q: What about the viability, T/C (second compound 0.316 µM, first compound 0.001 µM) of the same compound?
A: 91.6%

Q: And the viability, T/C (second compound 0.316 µM, first compound 0.00316 µM)?
A: 103%

Q: And the viability, T/C (second compound 0.316 µM, first compound 0.01 µM)?
A: 85.4%

Q: And the viability, T/C [13]?
A: 92.6%

Q: And the viability, T/C [14]?
A: 77.5%

Q: And the viability, T/C (second compound 1 µM, first compound 0.000316 µM)?
A: 102%

Q: And the viability, T/C (second compound 1 µM, first compound 0.001 µM)?
A: 102%

Q: What about the viability, T/C (second compound 1 µM, first compound 0.00316 µM) of the same compound?
A: 89.4%

Q: What about the viability, T/C (second compound 1 µM, first compound 0.01 µM) of the same compound?
A: 98.8%

Q: And the viability, T/C [19]?
A: 104%

Q: What about the viability, T/C [20] of the same compound?
A: 76.5%

Q: And the viability, T/C (second compound 3.16 µM, first compound 0.000316 µM)?
A: 90.7%

Q: What about the viability, T/C (second compound 3.16 µM, first compound 0.001 µM) of the same compound?
A: 98%

Q: And the viability, T/C (second compound 3.16 µM, first compound 0.00316 µM)?
A: 105%

Q: And the viability, T/C (second compound 3.16 µM, first compound 0.01 µM)?
A: 94.7%

Q: And the viability, T/C [25]?
A: 91.7%

Q: And the viability, T/C [26]?
A: 89.5%

Q: And the viability, T/C (second compound 10 µM, first compound 0.000316 µM)?
A: 103%

Q: And the viability, T/C (second compound 10 µM, first compound 0.001 µM)?
A: 106%

Q: What about the viability, T/C (second compound 10 µM, first compound 0.00316 µM) of the same compound?
A: 108%

Q: What about the viability, T/C (second compound 10 µM, first compound 0.01 µM) of the same compound?
A: 95.2%

Q: What about the viability, T/C [31] of the same compound?
A: 101%

Q: What about the viability, T/C [32] of the same compound?
A: 99.6%
